Laboratory results as given in patent US20220120736A1, “METHODS AND ASSAYS FOR MODULATING GENE TRANSCRIPTION BY MODULATING CONDENSATES” (Whitehead Institute for Biomedical Research, priority 2018, published 2022).

Tests used:
OCT4 (FKBP-tagged) = molecular target: T1, OCT4 (FKBP-tagged) (Mus musculus, UniProt P20263+Q8C7D2); assay: ChIP-seq after OCT4 degradation in OCT4-FKBP ESCs; type: cell-based; settings: dTag 24 hours versus DMSO
T1 construct: an ESC line bearing endogenous knock-in of DNA encoding the FKBP protein fused to OCT4; HA (C); endogenous in cells; host or cells: V6.5 mouse ES cells (Med1-mEGFP background), homozygous Oct4-FKBP knock-in
T1 sequence (P20263 with tags, fused parts or gaps): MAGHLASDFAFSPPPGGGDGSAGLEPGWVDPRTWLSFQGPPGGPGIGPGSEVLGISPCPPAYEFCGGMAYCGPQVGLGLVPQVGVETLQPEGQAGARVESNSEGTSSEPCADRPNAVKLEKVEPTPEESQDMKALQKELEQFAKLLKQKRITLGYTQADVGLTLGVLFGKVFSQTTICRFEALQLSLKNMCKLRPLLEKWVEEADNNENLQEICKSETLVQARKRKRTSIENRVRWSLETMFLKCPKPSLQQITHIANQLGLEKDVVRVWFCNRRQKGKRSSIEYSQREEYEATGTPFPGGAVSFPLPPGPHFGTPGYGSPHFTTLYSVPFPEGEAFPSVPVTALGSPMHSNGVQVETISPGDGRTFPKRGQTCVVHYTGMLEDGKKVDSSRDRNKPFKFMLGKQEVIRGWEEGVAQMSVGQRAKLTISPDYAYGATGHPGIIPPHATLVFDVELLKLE
T1 sequence (Q8C7D2 whole entry, the tested form may be a part): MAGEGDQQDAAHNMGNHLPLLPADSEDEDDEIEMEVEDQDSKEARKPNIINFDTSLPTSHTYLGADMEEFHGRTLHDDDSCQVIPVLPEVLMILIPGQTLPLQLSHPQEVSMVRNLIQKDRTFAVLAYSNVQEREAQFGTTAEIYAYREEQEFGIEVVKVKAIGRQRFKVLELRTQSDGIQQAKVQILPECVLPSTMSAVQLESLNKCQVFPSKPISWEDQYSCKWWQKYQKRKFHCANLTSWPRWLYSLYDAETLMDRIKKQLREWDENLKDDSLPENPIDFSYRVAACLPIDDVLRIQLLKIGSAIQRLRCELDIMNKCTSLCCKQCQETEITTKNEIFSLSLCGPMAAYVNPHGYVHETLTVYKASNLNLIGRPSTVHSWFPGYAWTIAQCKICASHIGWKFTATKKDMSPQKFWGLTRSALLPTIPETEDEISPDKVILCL
T1 sequence (Q3U1J4 whole entry partner, the tested form may be a part): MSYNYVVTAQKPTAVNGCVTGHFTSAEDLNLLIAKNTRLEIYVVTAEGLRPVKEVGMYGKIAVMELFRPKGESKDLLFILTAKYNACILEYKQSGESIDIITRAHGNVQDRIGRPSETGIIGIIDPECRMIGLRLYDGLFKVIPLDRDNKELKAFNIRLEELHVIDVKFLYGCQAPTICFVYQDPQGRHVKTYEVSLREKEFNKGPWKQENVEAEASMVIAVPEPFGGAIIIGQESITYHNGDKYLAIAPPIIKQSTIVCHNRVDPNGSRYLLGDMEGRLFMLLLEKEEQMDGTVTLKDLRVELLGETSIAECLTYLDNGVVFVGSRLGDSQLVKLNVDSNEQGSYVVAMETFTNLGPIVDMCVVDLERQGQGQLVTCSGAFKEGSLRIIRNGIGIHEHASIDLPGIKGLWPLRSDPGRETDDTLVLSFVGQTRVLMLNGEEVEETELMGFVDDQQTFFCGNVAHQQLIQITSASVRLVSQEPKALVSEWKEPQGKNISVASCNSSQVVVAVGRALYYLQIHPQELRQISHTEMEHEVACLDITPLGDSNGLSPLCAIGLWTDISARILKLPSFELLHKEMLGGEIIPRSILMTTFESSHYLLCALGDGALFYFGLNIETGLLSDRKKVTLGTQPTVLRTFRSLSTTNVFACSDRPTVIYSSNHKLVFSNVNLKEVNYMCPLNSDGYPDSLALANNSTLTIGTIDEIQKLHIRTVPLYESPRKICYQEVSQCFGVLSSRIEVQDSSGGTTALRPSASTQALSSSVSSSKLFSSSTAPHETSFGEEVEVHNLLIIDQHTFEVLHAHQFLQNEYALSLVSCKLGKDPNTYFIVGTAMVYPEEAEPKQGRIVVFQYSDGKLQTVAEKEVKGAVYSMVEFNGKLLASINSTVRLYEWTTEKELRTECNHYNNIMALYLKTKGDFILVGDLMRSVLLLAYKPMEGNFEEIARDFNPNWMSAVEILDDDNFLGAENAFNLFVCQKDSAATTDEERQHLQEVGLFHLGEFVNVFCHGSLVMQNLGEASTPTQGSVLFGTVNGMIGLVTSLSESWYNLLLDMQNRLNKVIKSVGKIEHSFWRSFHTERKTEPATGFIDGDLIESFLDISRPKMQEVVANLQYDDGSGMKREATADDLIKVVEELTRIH
Protocol: mES were grown to 80% confluence in 2i media. 1% formaldehyde in PBS was used for crosslinking of cells for 15 minutes, followed by quenching with Glycine at a final concentration of 125 mM on ice. Cells were washed with cold PBS and harvested by scraping cells in cold PBS. Collected cells were pelleted at 1000 g for 3 minutes at 4° C., flash frozen in liquid nitrogen and stored at −80° C. All buffers contained freshly prepared cOmplete protease inhibitors (Roche, 11873580001). […] The pellet was resuspended in sonication buffer (20 mM Tris-HCl pH 8.0, 150 mM NaCl, 2 mM EDTA pH 8.0, 0.1% SDS, and 1% Triton X-100, 1 3 protease inhibitors) and then sonicated on a Misonix 3000 sonicator for 10 cycles at 30 s each on ice (18-21 W) with 60 s on ice between cycles. Sonicated lysates were cleared once by centrifugation at 16,000 rcf. for 10 minutes at 4° C. Input material was reserved and the remainder was incubated overnight at 4° C. with magnetic beads bound with antibody (Table S4) to enrich for DNA fragments bound by the indicated factor. […]
ChIP-Seq data were aligned to the mm9 version of the mouse reference genome using bowtie with parameters -k 1 -m 1 -best and -l set to read length. […]

[1] = tested on: ER LBD point mutant-MED1 condensate in U2OS-Lac cells; assay: LAC binding assay, ER LBD point mutants tethered to Lac array; type: cell-based; settings: ER mutants (Y537S, D538G)
Protocol: Constructs were assembled by NEB HIFI cloning in pSV2 mammalian expression vector containing an SV40 promoter driving expression of a CFP-LacI fusion protein. The activation domains and mutant activation domains of ESR1 were fused by the c-terminus to this recombinant protein, joined by the linker sequence […] (SEQ ID NO: 14). For some experiments a variant plasmid with mCherry in place of CFP was used. […] Cells were then plated on fibronectin-coated glass coverslips and transfected using lipofectamine 3000 (Thermofisher L3000015). For high MED1 conditions, a construct with a mammalian expression vector containing a PGK promoter driving the expression of MED1 fused to GFP was co-transfected. […]
For analysis of Lac array data, custom Python scripts were written to process and analyze image data gathered in Lac and tagged-protein channels. […] Segmented regions (also determined by measure.label) were then filtered based on minimum area (150 pixels), maximum area (2000 pixels), circularity (c=4pi*area/perimeter^2; 0.8), and presence in a nucleus as defined by the mask described above. A norm enrichment ratio was calculated by determining the mean intensity of the tagged-protein in the segmented Lac spot and dividing it by the mean intensity of the tagged-protein present in the same whole nucleus.

Row | Compound | OCT4 and MED1 occupancy at enhancers (SEs versus TEs) (OCT4 (FKBP-tagged)) | MED1 condensate formation at tethered ER LBD, dependence on estrogen [1]
1 | CC[C@H](C(=O)N1CCCC[C@H]1C(=O)O[C@H](CCc1ccc(OC)c(OC)c1)c1ccccc1OCC(=O)NCCCCCCCCNc1ccc2c(c1)C(=O)N(C1CCC(=O)NC1=O)C2=O)c1cc(OC)c(OC)c(OC)c1 (some centres unmarked) [dTag] | reduction of OCT4 and MEM occupancy at enhancers, with the most profound effects occurring at SEs | –
2 | C[C@]12CC[C@@H]3c4ccc(O)cc4CC[C@H]3[C@@H]1CC[C@@H]2O [estrogen, B-Estradiol] | – | both in the presence and absence of estrogen
